Where a SMILES comes first, the peptide text is derived from it. [ ]: non-standard residue; d: D form.
Key:
Assay type in all cases: cell-based
[1] = system: clinical strains of S. aureus; assay: MIC, microdilution, clinical strains; settings: 0.02% BSA, 0.2% acetic acid
Summary of the method: (§1)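 Broth microdilution with inocula adjusted to 5.0×10^5 cfu/ml; peptides tested at 0.125 to 128 μg/ml and incubated at 37° C for 20 to 24 hours. Bacteria were grown in Mueller Hinton broth, yeasts in potato dextrose broth. MIC was the lowest concentration showing no visible growth.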

[2] = system: clinical strains of E. cloacae; assay: MIC, microdilution, clinical strains; settings: 0.02% BSA, 0.2% acetic acid
Summary of the method: as §1

[3] = system: clinical strains of K. pneumoniae; assay: MIC, microdilution, clinical strains; settings: 0.02% BSA, 0.2% acetic acid
Summary of the method: as §1

[4] = system: clinical strains of Proteus mirabilis; assay: MIC, microdilution, clinical strains; settings: 0.02% BSA, 0.2% acetic acid
Summary of the method: as §1

[5] = system: clinical strains of P. aeruginosa; assay: MIC, microdilution, clinical strains; settings: 0.02% BSA, 0.2% acetic acid
Summary of the method: as §1

[6] = system: clinical strains of E. coli; assay: MIC, microdilution, clinical strains; settings: microdilution, Muller Hinton broth-cation adjusted, 0.02% BSA, 0.2% acetic acid
Summary of the method: as §1

[7] = system: clinical strains of Serratia marcescens; assay: MIC, microdilution, clinical strains; settings: 0.02% BSA, 0.2% acetic acid
Summary of the method: as §1

[8] = system: clinical strains of S. pneumoniae; assay: MIC, microdilution, clinical strains; settings: 0.02% BSA, 0.2% acetic acid
Summary of the method: as §1

Candida albicans = assay: MIC, clinical yeast strains; settings: D-form peptide, concentrations tested 0.125 to 128 μg/ml
Summary of the method: (§2)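 Overnight MH agar colonies were suspended in MH broth to 5.0×10^5 cfu/ml, mixed with serial peptide dilutions (0.125–128 μg/ml) and incubated at 37° C for 20 to 24 hours. Yeast MICs were run the same way in potato dextrose broth, and wells were scored visually.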

C. glabrata = assay: MIC, clinical yeast strains; settings: D-form peptide, concentrations tested 0.125 to 128 μg/ml
Summary of the method: as §2

C. parapsilosis = assay: MIC, clinical yeast strains; settings: D-form peptide, concentrations tested 0.125 to 128 μg/ml
Summary of the method: as §2

C. quillermondiae = assay: MIC, clinical yeast strains; settings: clinical yeast strain 1; D-form peptide; concentrations tested 0.125 to 128 μg/ml
Summary of the method: as §2

[9] = system: clinical strains of A. johnsonii; assay: MIC, microdilution, clinical strains; design: unit: μg/ml; settings: Acinetobacter johnsonii strain 1, Muller Hinton broth-cation adjusted, 0.02% BSA, 0.2% acetic acid
Summary of the method: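 Broth microdilution in Potato dextrose broth, inoculum 5.0×10^5 cfu/ml, peptide 0.125–128 μg/ml, incubated at 37 °C for 20–24 h; MIC taken as lowest concentration without visible growth. A. johnsonii clinical strains were tested the same way in Mueller Hinton broth.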

[10] = system: clinical strains of Acinetobacter baumannii; assay: MIC, microdilution, clinical strains; design: unit: μg/ml; settings: 0.02% BSA, 0.2% acetic acid
Summary of the method: as §1

CC[C@@H](C)[C@@H](NC(=O)[C@@H](CCSC)NC(=O)[C@@H](C)NC(=O)[C@@H](CCCNC(=N)N)NC(=O)[C@@H](Cc1c[nH]c2ccccc12)NC(=O)[C@@H](CCCCN)NC(=O)[C@H](N)CCCNC(=N)N)C(=O)N[C@H](CCCNC(=N)N)C(=O)N[C@H](CC(C)C)C(=O)N[C@H](Cc1c[nH]cn1)C(=O)N[C@H](C)C(=O)N[C@H](CCCCN)C(=O)N[C@H](Cc1c[nH]c2ccccc12)C(=O)N[C@H](CC(C)C)C(=O)N[C@H](CCCNC(=N)N)C(=O)N[C@H](CCCCN)C(=O)O [Chain105D] (H-[dR][dK][dW][dR][dA][dM][dI][dR][dL][dH][dA][dK][dW][dL][dR][dK]-OH)
Minimum inhibitory concentration ([1]; Staphylococcus aureus strain 1, Muller Hinton broth-cation adjusted): 2 | Minimum inhibitory concentration ([1]; Staphylococcus aureus strain 2, Muller Hinton broth-cation adjusted): 2 | Minimum inhibitory concentration ([1]; Staphylococcus aureus strain 3, Muller Hinton broth-cation adjusted): 2 | Minimum inhibitory concentration ([1]; Staphylococcus aureus strain 4, Muller Hinton broth-cation adjusted): 2 | Minimum inhibitory concentration ([1]; Staphylococcus aureus strain 5, Muller Hinton broth-cation adjusted): 2 | Minimum inhibitory concentration ([2]; Enterobacter cloacae strain 1, Muller Hinton broth-cation adjusted): 2 | Minimum inhibitory concentration ([2]; Enterobacter cloacae strain 2, Muller Hinton broth-cation adjusted): 2 | Minimum inhibitory concentration ([2]; Enterobacter cloacae strain 3, Muller Hinton broth-cation adjusted): 2 | Minimum inhibitory concentration ([2]; Enterobacter cloacae strain 4, Muller Hinton broth-cation adjusted): 2 | Minimum inhibitory concentration ([2]; Enterobacter cloacae strain 5, Muller Hinton broth-cation adjusted): 1 | Minimum inhibitory concentration ([3]; Klebsiella pneumoniae strain 1, Muller Hinton broth-cation adjusted): 4 | Minimum inhibitory concentration ([3]; Klebsiella pneumoniae strain 2, Muller Hinton broth-cation adjusted): 2 | Minimum inhibitory concentration ([3]; Klebsiella pneumoniae strain 3, Muller Hinton broth-cation adjusted): 4 | Minimum inhibitory concentration ([3]; Klebsiella pneumoniae strain 4, Muller Hinton broth-cation adjusted): 4 | Minimum inhibitory concentration ([3]; Klebsiella pneumoniae strain 5, Muller Hinton broth-cation adjusted): 2 | Minimum inhibitory concentration ([4]; Proteus mirabilis strain 1, Muller Hinton broth-cation adjusted): >128 | Minimum inhibitory concentration ([4]; Proteus mirabilis strain 2, Muller Hinton broth-cation adjusted): 32 | Minimum inhibitory concentration ([4]; Proteus mirabilis strain 3, Muller Hinton broth-cation adjusted): 64 | Minimum inhibitory concentration ([4]; Proteus mirabilis strain 4, Muller Hinton broth-cation adjusted): >128 | Minimum inhibitory concentration ([4]; Proteus mirabilis strain 5, Muller Hinton broth-cation adjusted): >128 | Minimum inhibitory concentration ([5]; Pseudomonas aeruginosa strain 1, Muller Hinton broth-cation adjusted): 4 | Minimum inhibitory concentration ([5]; Pseudomonas aeruginosa strain 2, Muller Hinton broth-cation adjusted): 4 | Minimum inhibitory concentration ([5]; Pseudomonas aeruginosa strain 3, Muller Hinton broth-cation adjusted): 4 | Minimum inhibitory concentration ([5]; Pseudomonas aeruginosa strain 4, Muller Hinton broth-cation adjusted): 4 | Minimum inhibitory concentration ([5]; Pseudomonas aeruginosa strain 5, Muller Hinton broth-cation adjusted): 4 | Minimum inhibitory concentration ([6]; Escherichia coli strain 1): 1 | Minimum inhibitory concentration ([6]; Escherichia coli strain 2): 4 | Minimum inhibitory concentration ([6]; Escherichia coli strain 3): 1 | Minimum inhibitory concentration ([6]; Escherichia coli strain 4): 1 | Minimum inhibitory concentration ([6]; Escherichia coli strain 5): 2 | Minimum inhibitory concentration ([7]; Serratia marcescens strain 1, Muller Hinton broth-cation adjusted): 128 | Minimum inhibitory concentration ([7]; Serratia marcescens strain 2, Muller Hinton broth-cation adjusted): 128 | Minimum inhibitory concentration ([7]; Serratia marcescens strain 3, Muller Hinton broth-cation adjusted): 128 | Minimum inhibitory concentration ([7]; Serratia marcescens strain 4, Muller Hinton broth-cation adjusted): 128 | Minimum inhibitory concentration ([7]; Serratia marcescens strain 5, Muller Hinton broth-cation adjusted): 128 | Minimum inhibitory concentration ([8]; Streptococcus pneumoniae strain 1, Muller Hinton broth-cation adjusted): 4 | Minimum inhibitory concentration ([8]; Streptococcus pneumoniae strain 2, Muller Hinton broth-cation adjusted): 2 | Minimum inhibitory concentration ([8]; Streptococcus pneumoniae strain 3, Muller Hinton broth-cation adjusted): 2 | Minimum inhibitory concentration ([8]; Streptococcus pneumoniae strain 4, Muller Hinton broth-cation adjusted): 4 | Minimum inhibitory concentration ([8]; Streptococcus pneumoniae strain 5, Muller Hinton broth-cation adjusted): 2 | Minimum inhibitory concentration, Candida albicans strain 1 (Candida albicans; clinical yeast strain 1): 32 | Minimum inhibitory concentration, Candida albicans strain 2 (Candida albicans; clinical yeast strain 2): 16 | Minimum inhibitory concentration, Candida albicans strain 3 (Candida albicans; clinical yeast strain 3): 32 | Minimum inhibitory concentration, Candida albicans strain 4 (Candida albicans; clinical yeast strain 4): 32 | Minimum inhibitory concentration, Candida albicans strain 5 (Candida albicans; clinical yeast strain 5): 32 | Minimum inhibitory concentration, C. glabrata strain 1 (C. glabrata; clinical yeast strain 1): 16 | Minimum inhibitory concentration, C. glabrata strain 2 (C. glabrata; clinical yeast strain 2): 16 | Minimum inhibitory concentration, C. glabrata strain 3 (C. glabrata; clinical yeast strain 3): 8 | Minimum inhibitory concentration, C. glabrata strain 4 (C. glabrata; clinical yeast strain 4): 32 | Minimum inhibitory concentration, C. parapsilosis strain 1 (C. parapsilosis; clinical yeast strain 1): 8 | Minimum inhibitory concentration, C. parapsilosis strain 2 (C. parapsilosis; clinical yeast strain 2): 8 | Minimum inhibitory concentration, C. parapsilosis strain 3 (C. parapsilosis; clinical yeast strain 3): 8 | Minimum inhibitory concentration, C. parapsilosis strain 4 (C. parapsilosis; clinical yeast strain 4): 4 | Minimum inhibitory concentration, C. quillermondiae strain 1 (C. quillermondiae): 8 | Minimum inhibitory concentration [9]: 4 | Minimum inhibitory concentration ([10]; Acinetobacter baumannii strain 1, Muller Hinton broth-cation adjusted): 4 | Minimum inhibitory concentration ([10]; Acinetobacter baumannii strain 2, Muller Hinton broth-cation adjusted): 4 | Minimum inhibitory concentration ([10]; Acinetobacter baumannii strain 3, Muller Hinton broth-cation adjusted): 4 | Minimum inhibitory concentration ([10]; Acinetobacter baumannii strain 4, Muller Hinton broth-cation adjusted): 2 | Minimum inhibitory concentration ([10]; Acinetobacter baumannii strain 5, Muller Hinton broth-cation adjusted): 4

From patent US10457710B2, “Antimicrobial peptides, their variants and uses” (priority 2015, dated 2019)
